The record followed here is US10774085B2, “Method of treatment using substituted pyrazolo[1,5-A] pyrimidine compounds” (Array BioPharma Inc., priority 2008, dated 2020).

This assay deals with histidine-tagged recombinant human TrkA, cytoplasmic domain (Homo sapiens (Human), UniProt P04629). The assay can be described thus: TrkA ELISA Assay. It counts as biochemical. The following applies: 2.5 nM TrkA, 500 μM ATP; read-out: TrkA Elisa Enzyme IC50. As for the experimental part:
An enzyme-linked immunosorbant assay (ELISA) was used to assess TrkA kinase activity in the presence of inhibitors. Immulon 4HBX 384-well microtiter plates (Thermo part #8755) were coated with a 0.025 mg/mL solution of poly (Glu, Ala, Tyr; 6:3:1; Sigma P3899). Various concentrations of test compound, 2.5 nM TrkA (Invitrogen Corp., histidine-tagged recombinant human TrkA, cytoplasmic domain), and 500 μM ATP were incubated for 25 minutes at ambient temperature in the coated plates while shaking. The assay buffer consisted of 25 mM MOPS pH 7.5, 0.005% (v/v) Triton X-100 and 5 mM MgCl2. The reaction mixture was removed from the plate by washing with PBS containing 0.1% (v/v) Tween 20. The phosphorylated reaction product was detected using 0.2 μg/mL of a phosphotyrosine specific monoclonal antibody (clone PY20) conjugated to horseradish peroxidase in conjunction with the TMB Peroxidase Substrate System (KPL). After the addition of 1M phosphoric acid, the chromogenic substrate color intensity was quantitated via absorbance at 450 nm. IC50 values were calculated using either a 4 or 5-parameter logistic curve fit.
(In general: ELISA stands for enzyme-linked immunosorbent assay.)

histidine-tagged recombinant human TrkA, cytoplasmic domain, sequence (P04629 440-796): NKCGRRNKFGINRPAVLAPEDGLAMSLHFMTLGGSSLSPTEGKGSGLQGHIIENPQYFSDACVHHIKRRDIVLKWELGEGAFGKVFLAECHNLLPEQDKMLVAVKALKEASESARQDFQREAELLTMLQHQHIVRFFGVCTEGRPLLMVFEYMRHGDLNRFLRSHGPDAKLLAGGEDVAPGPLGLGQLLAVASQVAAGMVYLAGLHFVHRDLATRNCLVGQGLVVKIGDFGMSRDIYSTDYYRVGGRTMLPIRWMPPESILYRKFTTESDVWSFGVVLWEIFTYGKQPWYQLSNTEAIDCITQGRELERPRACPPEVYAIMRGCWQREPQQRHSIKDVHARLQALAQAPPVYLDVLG

What is called IC50 is the concentration that gives 50% inhibition. For `COc1ccc(F)cc1[C@H]1CCCN1c1ccn2ncc(NC(=O)N3CCC[C@H](O)C3)c2n1` [Example 91, (S)—N-(5-((R)-2-(5-fluoro-2-methoxyphenyl)pyrrolidin-1-yl)pyrazolo[1,5-a]pyrimidin-3-yl)-3-hydroxypiperidine-1-carboxamide], the IC50 was determined as 10.2 nM.
